In patent publication US6727038B1, “Photodefineable compositions” (Dow Global Technologies Inc., priority 1995, dated 2004):

How the values were obtained:
Format in all cases: physicochemical
[1] = Solubility of bis azides in mesitylene and in DVS resin/mesitylene mixture; settings: for Solubility In Mesitylene: in mesitylene at 25° C.; for Solubility In Mixture: mixture of 45 weight percent DVS resin in mesitylene at 10° C., weight percent based on total weight of mixture
Protocol: The solubility of various bis azides are determined in mesitylene at 25° C. and in a mixture of 45 weight percent DVS resin in mesitylene at 10° C. The results are shown in Table I. BAC-M is 2,6-bis(4-azidobenzylidene)-4-methylcyclohexanone and differs from the bis azide of the invention by having a methyl substituent on the cyclohexanone ring instead of ethyl. BAC-P is 2,6-bis(4-azidobenzylidene)-4-n-propyl cyclohexanone and differs from the bis azide of the invention by having an n-propyl substituent on the cyclohexanone ring instead of ethyl. The weight percent in the mixture is calculated based on the total weight of mixture.

[2] = Speed of dissolution in DVS resin/mesitylene; settings: shaken at room temperature
Protocol: BAC-E, up to four weight percent, is added to a mixture of 45 weight percent DVS resin in mesitylene and shaken at room temperature. The BAC-E dissolves in thirty minutes. BAC-M, at 2.0 weight percent is added to a mixture of 45 weight percent DVS resin in mesitylene and shaken at room temperature. The BAC-M requires more than eight hours of shaking to dissolve.

[3] = Storage at -15° C., precipitate formation
Protocol: A formulation containing 3.6 weight percent BAC-E in a mixture of 45 weight percent DVS resin in mesitylene is stored for more than five months at −15° C. […] A formulation containing 4.05 weight percent BAC-E in a mixture of 45 weight percent DVS resin in mesitylene is stored at −15° C. A precipitate forms in three days. A formulation containing 2.0 weight percent BAC-M in a mixture of 45 weight percent DVS resin in mesitylene is stored at −15° C. A precipitate forms in less than ten days.

Solubility In Mesitylene [1] | Solubility In Mixture [1] | time of shaking to dissolve ([2]; 2.0 weight percent in 45 weight percent DVS resin in mesitylene) | time until a precipitate forms ([3]; 2.0 weight percent BAC-M in 45 weight percent DVS resin in mesitylene, stored at -15° C.) | Structure (SMILES) | time to dissolve ([2]; up to four weight percent in 45 weight percent DVS resin in mesitylene) | precipitate formation on storage ([3]; 3.6 weight percent BAC-E in 45 weight percent DVS resin in mesitylene, stored more than five months at -15° C.)
1.7 g/100 mL | 1.0 Wt % | more than eight | less than ten | CC1CC(=Cc2ccc(N=[N+]=[N-])cc2)C(=O)C(=Cc2ccc(N=[N+]=[N-])cc2)C1 (stereo not shown) [BAC-M, 2,6-bis(4-azidobenzylidene)-4-methylcyclohexanone] |  | 
3.5 g/100 mL | 1.7 Wt % |  |  | CCCC1CC(=Cc2ccc(N=[N+]=[N-])cc2)C(=O)C(=Cc2ccc(N=[N+]=[N-])cc2)C1 (stereo not shown) [BAC-P, 2,6-bis(4-azidobenzylidene)-4-n-propyl cyclohexanone] |  | 

Structure (SMILES) | Solubility In Mesitylene [1] | Solubility In Mixture [1] | time of shaking to dissolve ([2]; 2.0 weight percent in 45 weight percent DVS resin in mesitylene) | time until a precipitate forms ([3]; 2.0 weight percent BAC-M in 45 weight percent DVS resin in mesitylene, stored at -15° C.) | time to dissolve ([2]; up to four weight percent in 45 weight percent DVS resin in mesitylene) | precipitate formation on storage ([3]; 3.6 weight percent BAC-E in 45 weight percent DVS resin in mesitylene, stored more than five months at -15° C.)
CCC1C/C(=C\c2ccc(N=[N+]=[N-])cc2)C(=O)/C(=C/c2ccc(N=[N+]=[N-])cc2)C1 (stereo not shown) [BAC-E, 2,6-bis(4-azidobenzylidene)-4-ethylcyclohexanone] | 14 g/100 mL | 10.4 Wt % |  |  | thirty | No precipitate forms
